Source: patent EP2072514A1, “1(2)H-tetrazol-5-yl-phenyl-oxazolidinones as antibacterial agents” (Ferrer Internacional, S.A., priority 2007, dated 2009)
pKi: −log10 of the molar value. Values after ≈ are worked out from the molar mass of the structure shown.

Experiments:
S. Aureus MR = assay: MIC by standard micro dilution method (NCCLS M7-A5); type: cell-based, Staphylococcus aureus; conditions: Mueller-Hinton medium (cation-adjusted), 16-24 h at 35°C; for MIC: Staphylococcus aureus, read-out: Geometric Mean MIC
S. epidermidis = assay: as above; type: cell-based, Staphylococcus epidermidis; conditions: Mueller-Hinton medium (cation-adjusted), 16-24 h at 35°C; for MIC: Staphylococcus epidermidis, read-out: Geometric Mean MIC
S. pneumoniae = assay: as above; type: cell-based, Streptococcus pneumoniae; conditions: 20-24h at 35°C; for MIC: Streptococcus pneumoniae, 5% CO2, read-out: Geometric Mean MIC
human MAO-A = biological target: T1, human MAO-A (Homo sapiens, UniProt P21397); assay: In vitro MAO-A enzymatic activity (kynuramine substrate, fluorometry); type: biochemical; conditions: membranes from SF9 cells expressing human MAO-A; kynuramine 30 µM, 37° for 40 min
T1 construct: purchased Gentest, BD, USA; host or cells: SF9 cells (membranes)
T1 sequence (P21397 1-527): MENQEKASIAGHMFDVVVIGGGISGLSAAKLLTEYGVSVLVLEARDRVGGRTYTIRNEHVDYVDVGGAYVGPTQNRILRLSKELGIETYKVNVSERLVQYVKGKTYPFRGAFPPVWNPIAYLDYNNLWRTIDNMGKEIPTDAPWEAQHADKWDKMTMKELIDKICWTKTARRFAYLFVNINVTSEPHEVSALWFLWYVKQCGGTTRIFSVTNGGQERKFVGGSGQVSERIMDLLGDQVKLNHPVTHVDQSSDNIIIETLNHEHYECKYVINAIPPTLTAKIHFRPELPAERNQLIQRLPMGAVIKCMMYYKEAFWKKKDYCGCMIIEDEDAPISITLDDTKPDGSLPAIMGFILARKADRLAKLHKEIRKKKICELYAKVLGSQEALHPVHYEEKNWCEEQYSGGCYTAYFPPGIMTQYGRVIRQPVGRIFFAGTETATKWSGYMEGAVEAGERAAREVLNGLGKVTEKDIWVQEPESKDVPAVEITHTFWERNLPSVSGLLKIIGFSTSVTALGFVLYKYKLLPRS
Description: (§1) MAO-A and MAO-B enzymatic activities were measured using membranes obtained from SF9 cells expressing either human MAO-A or human MAO-B (Gentest, BD, USA). Assays were done in blank 96-well micro titter plates using kynuramine as substrate and measuring the formation of 4-hydroxyquinoline by fluorescence at 340 nm/465 nm. Briefly, membranes with MAO-A (0.006 mg/mL protein) and MAO-B (0.015 mg/mL protein) were incubated with kynuramine, 30 µM), at 37° for 40 min in the presence of the compound in a final volume of 200 µL. Reactions were stopped by adding NaOH 2N and the reaction product, 4-hydroxyquinoline, was determined by fluorometry using a Tecan Ultra reader.

human MAO-B = biological target: T2, human MAO-B (Homo sapiens, UniProt P27338); assay: In vitro MAO-B enzymatic activity (kynuramine substrate, fluorometry); type: biochemical; conditions: membranes from SF9 cells expressing human MAO-B; kynuramine 30 µM, 37° for 40 min
T2 construct: purchased Gentest, BD, USA; host or cells: SF9 cells (membranes)
T2 sequence (P27338 1-520): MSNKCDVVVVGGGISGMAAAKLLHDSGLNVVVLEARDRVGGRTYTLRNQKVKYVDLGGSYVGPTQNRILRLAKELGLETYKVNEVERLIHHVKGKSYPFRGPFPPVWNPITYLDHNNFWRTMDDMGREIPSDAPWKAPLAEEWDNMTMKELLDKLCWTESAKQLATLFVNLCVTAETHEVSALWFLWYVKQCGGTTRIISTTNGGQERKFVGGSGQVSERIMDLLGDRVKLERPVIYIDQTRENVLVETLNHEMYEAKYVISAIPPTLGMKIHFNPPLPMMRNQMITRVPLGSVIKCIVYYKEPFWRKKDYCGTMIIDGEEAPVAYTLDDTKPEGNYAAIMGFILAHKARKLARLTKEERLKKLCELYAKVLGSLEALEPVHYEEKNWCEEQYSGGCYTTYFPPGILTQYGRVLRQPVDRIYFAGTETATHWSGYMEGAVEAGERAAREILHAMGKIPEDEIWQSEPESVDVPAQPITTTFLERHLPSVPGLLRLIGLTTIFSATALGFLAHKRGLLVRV
Description: as §1

[1] = tested on: Moxarella, Pasteurella and Bacteroides spp.; conditions: background art; cited from earlier work

| Compound | MIC (S. Aureus MR) | MIC (S. epidermidis) | MIC (S. pneumoniae) | pKi (human MAO-A) | pKi (human MAO-B) | MICs [1] | Geometric Mean MIC (S. Aureus MR) | Geometric Mean MIC (S. epidermidis) | Geometric Mean MIC (S. pneumoniae; 5% CO2) |
| --- | --- | --- | --- | --- | --- | --- | --- | --- | --- |
| CC(=O)NC[C@H]1CN(c2ccc(-c3nnnn3C)c(F)c2)C(=O)O1 [Example 2, N-[[(5S)-3-[3-fluoro-4-(1-methyl-1H-tetrazol-5-yl)-phenyl]-2-oxo-5-oxazolidinyl]methyl]acetamide] | 2 µg/mL (≈ 5.98 µM) | 2 µg/mL (≈ 5.98 µM) | 2 µg/mL (≈ 5.98 µM) | 4.13 | 4.85 |  |  |  |  |
| CC(=O)NC[C@H]1CN(c2ccc(-c3nnn(CCO)n3)c(F)c2)C(=O)O1 [Example 7, N-[[(5S)-3-[3-fluoro-4-(2-hydroxyethyl-2H-tetrazol-5-yl)-phenyl]-2-oxo-5-oxazolidinyl]methyl]acetamide] |  |  |  | 4.54 | 5.09 |  |  |  |  |
| CC(=O)NC[C@H]1CN(c2ccc(N3CCOCC3)c(F)c2)C(=O)O1 [Linezolid, N-[[(5S)-3-[3-fluoro-4-(4-morpholinyl)phenyl]-2-oxo-5-oxazolidinyl]methyl]acetamide, reference compound] | 1 µg/mL (≈ 2.96 µM) | 1 µg/mL (≈ 2.96 µM) | 1 µg/mL (≈ 2.96 µM) |  |  | 2 to 8 µg/mL |  |  |  |
| N-[[(5S)-3-[3-fluoro-4-(1-hydroxyethyl-1H-tetrazol-5-yl)-phenyl]-2-oxo-5-oxazolidinyl]methyl]acetamide [Example 8] |  |  |  |  |  |  | 2 µg/mL | 1 µg/mL | 2 µg/mL |
| N-[[(5S)-3-[3-fluoro-4-(2-acetoacetyl-2H-tetrazol-5-yl)-phenyl]-2-oxo-5-oxazolidinyl]methyl]acetamide [Example 6] |  |  |  | 4.43 | 5.00 |  |  |  |  |
